pEC50, pIC50: −log10 of the molar value. Like-named read-outs stand apart in the source and are kept apart here.
What was measured:
[1] = molecular target: T1, Glucosyltransferase HL60 (Homo sapiens, UniProt Q16739); assay: In vitro enzyme inhibition; assay type: biochemical; conditions: glucosyltransferase isolated from HL60 human promyelocytic cell line; read-out: IC50
T1 construct: endogenous in cells; host or cells: HL60
T1 sequence (Q16739 1-394): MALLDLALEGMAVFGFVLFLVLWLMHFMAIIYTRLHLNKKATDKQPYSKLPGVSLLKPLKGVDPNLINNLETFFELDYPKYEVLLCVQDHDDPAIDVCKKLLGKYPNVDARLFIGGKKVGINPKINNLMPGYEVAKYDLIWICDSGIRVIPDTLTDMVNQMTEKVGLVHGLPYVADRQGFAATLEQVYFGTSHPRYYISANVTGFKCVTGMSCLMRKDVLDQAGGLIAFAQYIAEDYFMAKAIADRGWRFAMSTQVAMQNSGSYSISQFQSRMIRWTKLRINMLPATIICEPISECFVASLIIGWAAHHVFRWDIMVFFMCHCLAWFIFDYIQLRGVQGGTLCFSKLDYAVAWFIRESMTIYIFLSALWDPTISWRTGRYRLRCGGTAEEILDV

[2] = tested on: DENV; design: method as in PMID 22020302; conditions: BHK-21 (hamster kidney) cell culture model; cited from earlier work
[3] = tested on: DENV2 strain 16681; assay: Infectious virus (plaque assay) and total virus (qRT-PCR for DENV RNA) secreted from infected MDMΦs; assay type: cell-based, dengue virus serotype 2; conditions: serial dilution, 48 h post-infection, normalized to untreated
Experimental: (§1) MDMΦ were infected with DENV2 16681 diluted to a multiplicity of infection (MOI) of 1 in X-VIVO10 without supplements for 90 minutes (20°C, with rocking). Upon removal of virus, fresh MDMΦ growth medium without IL-4 but containing serial dilutions of drug or control was placed on the cells, and cells were incubated for 48 hours (37°C, 5% CO2). For collection of infectious virus, supernatant was harvested and centrifuged for 5 minutes (room temperature, 400 x g) to pellet any cells/debris, and supernatants were aliquoted and stored at -80°C until analysis by plaque assay. […]
Virus titres for samples from human MDMΦ and C6/36 infections were obtained by LLC-MK2 plaque assays as per previous descriptions. […] A second-overlay containing nutrients, low-melting point tissue culture-grade agarose, and neutral red stain [33] was added and allowed to solidify at 20°C before further incubation for 1 day (37°C, 5% CO2) after which plaques were counted by eye. […]
DENV RNA in cell culture supernatants was isolated according to the manufacturer’s protocol for Direct-zol RNA MiniPrep Kit (Zymo Research) and assayed by reverse transcription-real time polymerase chain reaction (qRT-PCR) on an Applied Biosystems 7500 real-time PCR system (Life Technologies). […] Samples were read in technical duplicate and compared to a standard curve generated from high-titer viral RNA isolated from C6/36-grown DENV2. […]

[4] = tested on: DENV; design: method as in PMID 23070155, PMID 23376501, PMID 22020302, PMID 22867971; conditions: post-exposure therapeutic administration; cited from earlier work
[5] = tested on: dengue infection; design: method as in PMID 24877997, PMID 12355369; conditions: oral, 400 mg loading dose then 200 mg/dose b.i.d.; cited from earlier work
[6] = tested on: DENV2 strain 16681; assay: In vitro antiviral assay: infectious DENV titer from infected MDMΦs by LLC-MK2 plaque assay; assay type: cell-based, dengue virus serotype 2
[7] = tested on: lysosomal β-N-acetylhexosaminidase; assay: Free oligosaccharide analysis in MDMΦs: hexosaminidase-related FOS; assay type: cell-based, human; conditions: MNTD, 48 h
Experimental: as §1, with “assay. In the case of FOS and GSL assays where MDMΦ were uninfected, treatments were essentially as above except that no virus was added and cells were washed three times with sterile PBS after 24 or 48 hours as per sample time point.” for “assay.”
MDMΦ FOS were detected as previously described by Alonzi et al.. […] Glycans were separated by normal phase-high performance liquid chromatography (NP-HPLC), and peak area was used to assess molar quantity in comparison to standards of known identity and quantity. […] Absorbance values (Axxx) at 595 nm and 420 nm were measured, and the ratio of A595 to A420 was used to determine protein concentration in comparison to a serially diluted standard of bovine serum albumin.

[8] = Dengue virus, DENV2, LLC-MK2, 48 h, MDMΦs infected with DENV2 MOI 1, drug 48 h, infectious titer by plaque assay, table values with 95% confidence interval in parentheses, read-out: EC50

| Compound | pIC50 [1] | enhancement of antiviral efficacy over castanospermine [2] | infectious virus and total virus secreted [3] | protection in lethal mouse models of DENV infection [4] | reduction in viral load or fever burden in patients [5] | pEC50 [6, 8] | Enhancement (fold improvement of antiviral EC50 versus parent compound) ([6]; EC50 parent / EC50 derivative, parent DNJ or castanospermine) [fold] | pEC50 ([6]; MDMΦs infected with DENV2 MOI 1, drug 48 h, infectious titer by plaque assay, table values with 95% confidence interval in parentheses, read-out: EC50) | FOS generated by inhibition of lysosomal β-N-acetylhexosaminidase [7] | pEC50 ([6]; Dengue virus, DENV2, LLC-MK2, 48 h, MDMΦs, DENV2, 48 h, read-out: 95% CI for antiviral EC50) |
| --- | --- | --- | --- | --- | --- | --- | --- | --- | --- | --- |
| CCCC(=O)O[C@H]1CN2CC[C@H](O)[C@@H]2[C@@H](O)[C@@H]1O [Celgosivir, 6-O-butanoyl-castanospermine] | < 3.00 | ~ 100 fold | reduces infectious virus (solid lines) and total virus (dashed lines) secreted in a one-to-one ratio | protection in lethal mouse models | failed to demonstrate reduction in viral load or fever burden | 5.30 | 7 | 5.29 | – | – |
| CCCCN1C[C@H](O)[C@@H](O)[C@@H](O)[C@H]1CO [NB-DGJ] | – | – | – | – | – | – | – | – | do produce FOS generated by inhibition of lysosomal β-N-acetylhexosaminidase | – |
| CCCCN1C[C@H](O)[C@@H](O)[C@H](O)[C@H]1CO [NB-DNJ, N-butyl-DNJ] | – | – | reduces infectious virus (solid lines) and total virus (dashed lines) secreted in a one-to-one ratio | protection in lethal mouse models | – | 4.97 | – | – | – | 4.84 to 5.11 |
| CCCCCCCCCN1C[C@H](O)[C@@H](O)[C@@H](O)[C@H]1CO [NN-DGJ] | – | – | – | – | – | – | – | – | do produce FOS generated by inhibition of lysosomal β-N-acetylhexosaminidase | – |
